The target in one data set is murine iNOS (Mus musculus (Mouse), UniProt P29477). As to the kind of experiment: Oxyhemoglobin NO capture assay with purified NOS. Type of data set: biochemical.
The target of another data set is rat nNOS (Rattus norvegicus (Rat), UniProt P29476). Put plainly: Oxyhemoglobin NO capture assay with purified NOS. It is filed as biochemical.
A further data set has as its target bovine eNOS (Bos taurus (Bovine), UniProt P29473). Put plainly: Oxyhemoglobin NO capture assay with purified NOS. It is filed as biochemical.
The target in the next data set is bsNOS (Bacillus subtilis (strain 168), UniProt O34453). As to the kind of experiment: Imidazole displacement, spectral binding constant KS.
Data set [1] in a line: Plasma pharmacokinetics and brain distribution in mice. It is filed as in vivo, male BALB/c mice. As to conditions: for C0: back extrapolated conc.; for clearance / half-life: 2 mg/kg; for Vd: read-out: Vss.
Description: Pharmacokinetic study. A group of forty-eight male mice were divided into two groups: Group 1 (2 mg/kg; i.v.) and Group 2 (10 mg/kg; p.o.) with each group comprising twenty-four mice. […] The blood samples were collected from a set of three mice at each time point in labeled micro centrifuge tubes containing K2EDTA as anticoagulant. Plasma samples were separated by centrifugation of whole blood and stored below −70° C. until bioanalysis. […] Tissue samples were homogenized using ice-cold phosphate buffer saline (pH 7.4) and homogenates were stored below −70° C. until analyzed. The total homogenate volume was three times that of the tissue weight. […] Specific LC-MS/MS and MRM conditions are described below. Pharmacokinetic parameters were calculated using the non-compartmental analysis tool of Phoenix WinNonlin (Version 6.3).
Where [2] appears, read: ratio Ki eNOS / Ki nNOS, Table 13.
Setting [3] is: ratio Ki iNOS / Ki nNOS, Table 13.
[4] abbreviates: male, BALB/c, mouse, brain, iv, i.v. 2 mg/kg.
Setting [5] is: male, BALB/c, mouse, iv, i.v. 2 mg/kg, plasma.
[6] abbreviates: male, BALB/c, mouse, plasma, iv, i.v. 2 mg/kg.
Where [7] appears, read: male, BALB/c, mouse, po, p.o. 10 mg/kg, plasma.
Where [8] appears, read: ratio Ki eNOS / Ki rat nNOS, Table 9.
Where [9] appears, read: ratio Ki iNOS / Ki rat nNOS, Table 9.

Read-outs that look alike come from different tables or passages of the source.

Sequence of bsNOS (O34453 whole entry): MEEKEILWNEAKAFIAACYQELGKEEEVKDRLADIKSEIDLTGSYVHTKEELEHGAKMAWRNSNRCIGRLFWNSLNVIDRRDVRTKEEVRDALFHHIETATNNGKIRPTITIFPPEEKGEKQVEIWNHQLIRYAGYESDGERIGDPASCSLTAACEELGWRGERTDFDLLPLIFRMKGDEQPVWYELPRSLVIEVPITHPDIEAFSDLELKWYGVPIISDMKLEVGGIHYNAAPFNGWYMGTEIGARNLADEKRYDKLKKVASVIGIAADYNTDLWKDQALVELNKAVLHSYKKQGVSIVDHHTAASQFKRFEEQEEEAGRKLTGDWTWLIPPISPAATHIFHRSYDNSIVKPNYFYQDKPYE
Description for bovine eNOS: (§1) The oxyhemoglobin NO assays were performed with purified NOSs using a Biotek Gen5™ microplate reader as previously reported. […] For iNOS, calmodulin and CaCl2 were omitted because iNOS is calcium independent. […] The calculated standard deviations of the assays were less than 10% with all NOSs. […] The selectivity of antagonism of nNOS was determined by calculating the ratios of the Ki values with iNOS or eNOS to those with rat nNOS.
Description for murine iNOS: as §1
Description for rat nNOS: as §1

Turning to `Cc1cc(N)nc(CCc2cccc([C@H](N)Cc3cc(C)cc(N)n3)c2)c1` [Compound 3R, (R)-6-(2-Amino-2-(3-(2-(6-amino-4-methylpyridin-2-yl)ethyl)phenyl)ethyl)-4-methylpyridin-2-amine], the inhibitory constant (Ki) at murine iNOS (Table 13, read-out: iNOS Ki) was found to be 15.6 µM; on rat nNOS (Table 13, read-out: nNOS Ki), 0.122 µM.
For the compound `Cc1cc(N)nc(CCc2cccc([C@@H](N)Cc3cc(C)cc(N)n3)c2)c1` [Compound 3S, (S)-6-(2-Amino-2-(3-(2-(6-amino-4-methylpyridin-2-yl)ethyl)phenyl)ethyl)-4-methylpyridin-2-amine], the Ki turned out to be 17.7 µM on murine iNOS (Table 13, read-out: iNOS Ki) and 0.144 µM on rat nNOS (Table 13, read-out: nNOS Ki).
Consider `Cc1ccnc(CCc2cccc([C@H](N)Cc3cc(C)cc(N)n3)c2)c1` [Compound 5R, (R)-6-(2-Amino-2-(3-(2-(4-methylpyridin-2-yl)ethyl)phenyl)ethyl)-4-methylpyridin-2-amine], for which the e/n selectivity at bovine eNOS (setting [2]) was 240. In addition, the Ki was over 100 µM at murine iNOS (Table 13, read-out: iNOS Ki) and 4.37 µM on rat nNOS (Table 13, read-out: nNOS Ki). For the same compound, at murine iNOS (setting [3]), the i/n selectivity is given as over 22.
`Cc1ccnc(CCc2cccc([C@@H](N)Cc3cc(C)cc(N)n3)c2)c1` [Compound 5S, (S)-6-(2-Amino-2-(3-(2-(4-methylpyridin-2-yl)ethyl)phenyl)ethyl)-4-methylpyridin-2-amine]: the Ki is 328 µM on bovine eNOS (Table 13, read-out: eNOS Ki); over 100 µM at murine iNOS (Table 13, read-out: iNOS Ki); 0.903 µM on rat nNOS (Table 13, read-out: nNOS Ki). Further, at bovine eNOS (setting [2]), the e/n selectivity is recorded as 363. Further, the i/n selectivity at murine iNOS (setting [3]) is recorded as over 110.
On bsNOS (KS bsNOS, imidazole displacement, Tables 1 and 4), `Cc1cc(N)nc(CCc2cccc(C(O)Cc3cc(C)cc(N)n3)c2)c1` (centres unmarked) [Compound 10] displayed a Kd of 1.89 µM.
The compound `Cc1cc(N)nc(COC[C@H](N)[C@H](C)OCc2cc(C)cc(N)n2)c1` [Compound 11] yielded a Kd at bsNOS (KS (bsNOS), Table 5) of 1.1 ± 0.1 µM.
Still for that read-out and setting: under `CCN(CCc1cccc(F)c1)Cc1cccc(NC(=N)c2cccs2)c1` [Compound 15] stands 119 ± 25 µM.
Take `Nc1ccc2cc(CCNCc3cccc(F)c3)ccc2n1` [Compound 16]: the Kd at bsNOS (KS (bsNOS), Table 5) is 95 ± 20 µM.
On the same count and under the same terms, under `Nc1ccc2cc(CNCCc3cccc(F)c3)ccc2n1` [Compound 17] stands 420 ± 130 µM; under `Nc1ccc2ccc(CCNCc3cccc(F)c3)cc2n1` [Compound 18], 0.97 ± 0.04 µM.
Turning to `CNCCN(C)c1cc(C#N)cc(CCc2cc(C)cc(N)n2)c1` [Compound 19c, 3-(2-(6-Amino-4-methylpyridin-2-yl)ethyl)-5-(methyl(2-(methylamino)ethyl)amino)benzonitrile], the inhibitory constant (Ki) at bovine eNOS (Table 9, read-out: Ki eNOS) amounted to 24.9 µM; on murine iNOS (Table 9, read-out: Ki iNOS), 3.67 µM; at rat nNOS (Table 9, read-out: Ki Rat nNOS) it was 0.024 µM. Further, the AUClast in data set [1] (i.v. 2 mg/kg, brain) was 789.07 ng·h/g; in data set [1] (p.o. 10 mg/kg, brain), 673.67 ng·h/g. The CL stood at 21.18 mL/min/kg in data set [1] (i.v. 2 mg/kg, brain) and 184.16 mL/min/kg in data set [1] (i.v. 2 mg/kg, plasma). Further, the C0 was 100.28 ng/g in data set [1] (i.v. 2 mg/kg, brain) and 472 ng/mL in data set [1] (male, BALB/c, mouse, iv, i.v. 2 mg/kg, plasma, read-out: C0). In data set [1] (i.v. 2 mg/kg, plasma), this compound showed a T1/2 of 1.12 h. Besides, the clearance in data set [1] (setting [4]) was 21 mL/min/kg; in data set [1] (setting [6]), 184 mL/min/kg. The half-life in data set [1] (setting [4]) was 24.8 h; in data set [1] (setting [6]), 1.1 h. Further, the Vd is 44 L/kg in data set [1] (male, BALB/c, mouse, iv, i.v. 2 mg/kg, brain) and 14.8 L/kg in data set [1] (setting [5]). The AUC(0-inf) in data set [1] (setting [5]) was determined as 181 ng·h/mL; in data set [1] (setting [7]) it was 182 ng·h/mL. Further, the exposure AUC(0-t) amounted to 180 ng·h/mL in data set [1] (setting [5]) and 162 ng·h/mL in data set [1] (setting [7]). Besides, the Cmax in data set [1] (male, BALB/c, mouse, po, p.o. 10 mg/kg, brain) amounted to 39.3 ng/g; in data set [1] (setting [7]), 50.8 ng/mL. The Tmax in data set [1] (male, BALB/c, mouse, po, p.o. 10 mg/kg, brain, read-out: Tmax) came to 4 h; in data set [1] (male, BALB/c, mouse, po, p.o. 10 mg/kg, plasma, read-out: Tmax), 0.25 h; in data set [1] (p.o. 10 mg/kg, plasma), 0.25 h. For the same compound, the “% F (oral bioavailability)” value in data set [1] (p.o. 10 mg/kg vs i.v. 2 mg/kg, AUClast used) worked out at 18%.
The compound `Nc1ccc2ccc(CNCCCc3cccc(F)c3)cc2n1` [Compound 21] showed a Kd on bsNOS (KS (bsNOS), Table 5) of 3.2 ± 0.1 µM.
`CCNCCN(C)c1cc(C#N)cc(CCc2cc(C)cc(N)n2)c1` [Compound 21a]: the inhibition constant Ki at bovine eNOS (Table 9, read-out: Ki eNOS) turned out to be 37.6 µM; at murine iNOS (Table 9, read-out: Ki iNOS), 11.5 µM; at rat nNOS (Table 9, read-out: Ki Rat nNOS), 0.064 µM. Besides, the e/n selectivity on bovine eNOS (setting [8]) is recorded as 583.7. The i/n selectivity on murine iNOS (setting [9]) was 178.0.
The corresponding values for `Cc1cc(N)nc(CCc2cc(C#N)cc(N(C)CCNC(C)C)c2)c1` [Compound 21b] are 39.9 µM, 45.1 µM, 0.125 µM, 320.1 and 361.5.
For the compound `Cc1cc(N)nc(CCc2cc(C#N)cc(N(C)CCNC3CC3)c2)c1` [Compound 21c], the Ki at bovine eNOS (Table 9, read-out: Ki eNOS) stood at 31.1 µM; on murine iNOS (Table 9, read-out: Ki iNOS), 28 µM; at rat nNOS (Table 9, read-out: Ki Rat nNOS), 0.114 µM. For the same compound, at bovine eNOS (setting [8]), the e/n selectivity turned out to be 274.0. For the same compound, the i/n selectivity at murine iNOS (setting [9]) was determined as 246.6.
Consider `Cc1cc(N)nc(CCc2cc(C#N)cc(N(C)CCc3cccc(F)c3)c2)c1` [Compound 21d], for which the inhibition constant (Ki) at murine iNOS (Table 9, read-out: Ki iNOS) stood at 45.3 µM; on rat nNOS (Table 9, read-out: Ki Rat nNOS), 1.8 µM. Further, the i/n selectivity at murine iNOS (setting [9]) is reported as 33.7.
`Cc1cc(N)nc(CCc2cc(C#N)cc(NCCc3cccc(F)c3)c2)c1` [Compound 22, 3-(2-(6-Amino-4-methylpyridin-2-yl)ethyl)-5-((3-fluorophenethyl)amino)benzonitrile]: binding on bsNOS (KS (bsNOS), Table 5) was put at a Kd of 62 ± 25 µM.
`Cc1cc(N)nc(CCc2cc(F)cc(NCCN(C)C)c2)c1` [Compound 23a, N^1-(3-(2-(6-Amino-4-methylpyridin-2-yl)ethyl)-5-fluorophenyl)-N^2,N^2-dimethylethane-1,2-diamine]: the Ki at bovine eNOS (Table 9, read-out: Ki eNOS) worked out at 9.58 µM; on murine iNOS (Table 9, read-out: Ki iNOS) it was 3.31 µM; at rat nNOS (Table 9, read-out: Ki Rat nNOS), 0.07 µM. On bovine eNOS (setting [8]), the e/n selectivity is given as 136.9. Moreover, the i/n selectivity on murine iNOS (setting [9]) was determined as 47.3.
The corresponding values for `CCNCCN(C)c1cc(F)cc(CCc2cc(C)cc(N)n2)c1` [Compound 23b, N^1-(3-(2-(6-Amino-4-methylpyridin-2-yl)ethyl)-5-fluorophenyl)-N^2-ethyl-N^1-methylethane-1,2-diamine] are 17.9 µM, 6.38 µM, 0.032 µM, 558.4 and 199.4.
In the case of `Cc1cc(N)nc(CCc2cc(F)cc(N(C)CCNC3CC3)c2)c1` [Compound 23c, N^1-(3-(2-(6-Amino-4-methylpyridin-2-yl)ethyl)-5-fluorophenyl)-N^2-cyclopropyl-N^1-methylethane-1,2-diamine], the Ki on bovine eNOS (Table 9, read-out: Ki eNOS) was found to be 6.21 µM; on murine iNOS (Table 9, read-out: Ki iNOS), 10.9 µM; at rat nNOS (Table 9, read-out: Ki Rat nNOS), 0.05 µM. The e/n selectivity on bovine eNOS (setting [8]) is 124.3. On murine iNOS (setting [9]), the i/n selectivity is listed as 217.8.
For `CCN(CCNC)c1cc(F)cc(CCc2cc(C)cc(N)n2)c1` [Compound 23d, N^1-(3-(2-(6-Amino-4-methylpyridin-2-yl)ethyl)-5-fluorophenyl)-N^1-ethyl-N^2-methylethane-1,2-diamine], the Ki was determined as 4.29 µM on bovine eNOS (Table 9, read-out: Ki eNOS); 5.04 µM at murine iNOS (Table 9, read-out: Ki iNOS); 0.046 µM at rat nNOS (Table 9, read-out: Ki Rat nNOS). Further, the e/n selectivity at bovine eNOS (setting [8]) is given as 93.2. Moreover, the i/n selectivity at murine iNOS (setting [9]) is on record as 109.6.
In the same order, the values of `CNCCN(c1cc(F)cc(CCc2cc(C)cc(N)n2)c1)C1CC1` [Compound 23e, N^1-(3-(2-(6-amino-4-methylpyridin-2-yl)ethyl)-5-fluorophenyl)-N^1-cyclopropyl-N^2-methylethane-1,2-diamine] are 7.89 µM, 8.33 µM, 0.056 µM, 140.9 and 148.7.
In the same order, the values of `Cc1cc(N)nc(CCc2cc(F)cc(NCc3cccc(Cl)c3)c2)c1` [Compound 23f, 6-(3-((3-Chlorobenzyl)amino)-5-fluorophenethyl)-4-methylpyridin-2-amine] are 7.08 µM, 9.56 µM, 0.027 µM, 262.0 and 354.1.
Take `Cc1cc(N)nc(CCc2cc(F)cc(NCc3cccnc3)c2)c1` [Compound 23g, 6-(3-Fluoro-5-((pyridin-3-ylmethyl)amino)phenethyl)-4-methylpyridin-2-amine]: the inhibitory constant (Ki) on bovine eNOS (Table 9, read-out: Ki eNOS) is 10.3 µM; on murine iNOS (Table 9, read-out: Ki iNOS) it was 11 µM; at rat nNOS (Table 9, read-out: Ki Rat nNOS), 1.03 µM. The e/n selectivity at bovine eNOS (setting [8]) is 10.0. For the same compound, on murine iNOS (setting [9]), the i/n selectivity came out at 10.7.
The corresponding values for `Cc1cc(N)nc(CCc2cc(F)cc(N3CCNCC3)c2)c1` [Compound 23h, 6-(3-Fluoro-5-(piperazin-1-yl)phenethyl)-4-methylpyridin-2-amine] are 4.84 µM, 3.51 µM, 0.058 µM, 82.8 and 60.2.
`Cc1cc(N)nc(CCc2cc(F)cc(NC3CCNCC3)c2)c1` [Compound 23i, 6-(3-Fluoro-5-(piperidin-4-ylamino)phenethyl)-4-methylpyridin-2-amine]: the Ki at bovine eNOS (Table 9, read-out: Ki eNOS) is 4.89 µM; at murine iNOS (Table 9, read-out: Ki iNOS), 13.5 µM; on rat nNOS (Table 9, read-out: Ki Rat nNOS), 0.121 µM. In addition, the e/n selectivity at bovine eNOS (setting [8]) is listed as 40.2. Besides, at murine iNOS (setting [9]), the i/n selectivity was 110.9.

The record behind these values is patent US9951014B2, “Mammalian and bacterial nitric oxide synthase inhibitors” (Northwestern University, priority 2014, dated 2018).
